Laboratory results as given in patent US9708314B2, “Heterocyclic amide compound” (NISSAN CHEMICAL INDUSTRIES, LTD., priority 2013, dated 2017).

Key:
Format in all cases: in vivo
[1] = test system: Echinochloa oryzacola Vasing.; assay: Test Example 1: herbicidal activity, application before weed generation in submerged conditions; settings: Application herbicide amount 320 g/ha; Seventeenth Table
From the text: (§1) [Test Example 1] Herbicidal Activity Test by Application Before Weed Generation in Submerged Conditions After alluvial soil was placed into 1/10000 are of Wagner pot, water was poured and mixed to form a submerged condition having a water depth of 4 cm. Seeds of Echinochloa oryzacola Vasing., Scirpus juncoides, and Monochoria vaginalis were sowed in a mixed manner in the above pot and thereafter 2.5 leaf stage Oryza sativa seedling was transplanted. On the day of sowing seeds, the emulsion agent containing the compound of the present invention prepared in accordance with Formulation Example 2 was diluted with water so as to be a predetermined herbicide amount and the diluted compound was applied to the surface of the water. The pot was placed in a greenhouse of 25° C. to 30° C. to grow plant. Three weeks after the herbicide application, effects on each plant were investigated in accordance with the following criteria. Criteria 5 Herbicidal ratio of 90% or more (almost completely withered) 4 Herbicidal ratio of 70% or more and less than 90% 3 Herbicidal ratio of 40% or more and less than 70% 2 Herbicidal ratio of 20% or more and less than 40% 1 Herbicidal ratio of 5% or more and less than 20% 0 Herbicidal ratio of 5% or less (almost no effect) A: Echinochloa oryzicola Vasing., B: Scirpus juncoides, C: Monochoria vaginalis, D: Leptochloa chinensis, E: Cyperus difformis, F: Digitaria ciliaris, G: Setaria viridis, H: Echinochloa crus-galli var. crus-galli, I: Avena fatua, J: Alopecurus myosuroides, K: Lolium multiflorum Lam., L: Apera spica-venti., M: Abutilon theophrasti, N: Amaranthus retroflexus, O: Chenopodium album, P: Stellaria media, Q: Galium spurium, R: Veronica persica, a: transplanted Oryza sativa, b: directly sowed Oryza sativa, c: Zea mays, d: Glycine max, e: Triticum aestivum, f: Beta vulgaris ssp. vulgaris, and g: Brassica campestris L. The application herbicide amount (g/ha) means an amount that a concentration is adjusted so that, when an application amount is converted into per hectare (1 ha), the herbicide is applied by the number of grams (g) of the described value.

Monochoria vaginalis = assay: as above; settings: Application herbicide amount 320 g/ha; Seventeenth Table
From the text: as §1

Scirpus juncoides = assay: as above; settings: Application herbicide amount 320 g/ha; Seventeenth Table
From the text: as §1

[2] = test system: transplanted Oryza sativa; assay: Test Example 1: effect on crop, application before weed generation in submerged conditions; settings: Application herbicide amount 320 g/ha; Seventeenth Table
From the text: as §1

Cyperus difformis = assay: Test Example 3: herbicidal effect by application to foliage (Wagner pot, water depth 0.1-0.5 cm); settings: Nineteenth Table; application to foliage; application herbicide amount 320 g/ha
Method in brief: (§2)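 Three weeks after spraying, each species was graded 0–5 for herbicidal ratio, 5 being 90% or more. Application: water-diluted emulsifiable concentrate at a fixed g/ha to foliage of 14-day-old greenhouse (25–30 °C) plants in alluvial soil.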

[3] = test system: Echinochloa crus-galli var. crus-galli; assay: as above; settings: Nineteenth Table; application to foliage; application herbicide amount 320 g/ha
Method in brief: as §2

Leptochloa chinensis = assay: as above; settings: Nineteenth Table; application to foliage; application herbicide amount 320 g/ha
Method in brief: as §2

[4] = test system: directly sowed Oryza sativa; assay: Test Example 3: effect on crop by application to foliage (Wagner pot, water depth 0.1-0.5 cm); settings: Nineteenth Table; application to foliage; application herbicide amount 320 g/ha
Method in brief: as §2

SMILES	A: Echinochloa oryzicola Vasing. (herbicidal effect grade) [1]	C: Monochoria vaginalis (herbicidal effect grade) (Monochoria vaginalis)	B: Scirpus juncoides (herbicidal effect grade) (Scirpus juncoides)	a: transplanted Oryza sativa (effect on crop grade) [2]	E (herbicidal effect grade) (Cyperus difformis)	H (herbicidal effect grade) [3]	D (herbicidal effect grade) (Leptochloa chinensis)	b (effect on crop grade) [4]
Cc1nnc(NC(=O)c2ccc(C(F)(F)F)n3c(N4CCOCC4)nnc23)o1 [1-096]	5 (Herbicidal ratio of 90% or more (almost completely withered))	4 (Herbicidal ratio of 70% or more and less than 90%)	4 (Herbicidal ratio of 70% or more and less than 90%)	3 (Herbicidal ratio of 40% or more and less than 70%)	4 (Herbicidal ratio of 70% or more and less than 90%)	5 (Herbicidal ratio of 90% or more (almost completely withered))	5 (Herbicidal ratio of 90% or more (almost completely withered))	4 (Herbicidal ratio of 70% or more and less than 90%)
C=CC[S+]([O-])c1nnc2c(C(=O)Nc3nnc(C)o3)ccc(C(F)(F)F)n12 (stereo not drawn) [1-074]	2 (Herbicidal ratio of 20% or more and less than 40%)	0 (Herbicidal ratio of 5% or less (almost no effect))	2 (Herbicidal ratio of 20% or more and less than 40%)	0 (Herbicidal ratio of 5% or less (almost no effect))	3 (Herbicidal ratio of 40% or more and less than 70%)	5 (Herbicidal ratio of 90% or more (almost completely withered))	4 (Herbicidal ratio of 70% or more and less than 90%)	0 (Herbicidal ratio of 5% or less (almost no effect))
Cc1nnc(NC(=O)c2ccc(C(F)(F)C(F)(F)F)n3c(C(C)C)nnc23)o1 [1-066]	5 (Herbicidal ratio of 90% or more (almost completely withered))	2 (Herbicidal ratio of 20% or more and less than 40%)	4 (Herbicidal ratio of 70% or more and less than 90%)	2 (Herbicidal ratio of 20% or more and less than 40%)	3 (Herbicidal ratio of 40% or more and less than 70%)	1 (Herbicidal ratio of 5% or more and less than 20%)	4 (Herbicidal ratio of 70% or more and less than 90%)	0 (Herbicidal ratio of 5% or less (almost no effect))
CSC(C)c1nnc2c(C(=O)Nc3nnc(C)o3)ccc(C(F)(F)F)n12 (stereo not drawn) [1-078]	4 (Herbicidal ratio of 70% or more and less than 90%)	3 (Herbicidal ratio of 40% or more and less than 70%)	4 (Herbicidal ratio of 70% or more and less than 90%)	4 (Herbicidal ratio of 70% or more and less than 90%)	5 (Herbicidal ratio of 90% or more (almost completely withered))	5 (Herbicidal ratio of 90% or more (almost completely withered))	5 (Herbicidal ratio of 90% or more (almost completely withered))	5 (Herbicidal ratio of 90% or more (almost completely withered))
Cc1nnc(NC(=O)c2ccc(C(F)(F)F)n3c(-c4cccc(Cl)n4)nnc23)o1 [1-055]	4 (Herbicidal ratio of 70% or more and less than 90%)	4 (Herbicidal ratio of 70% or more and less than 90%)	4 (Herbicidal ratio of 70% or more and less than 90%)	1 (Herbicidal ratio of 5% or more and less than 20%)	5 (Herbicidal ratio of 90% or more (almost completely withered))	5 (Herbicidal ratio of 90% or more (almost completely withered))	4 (Herbicidal ratio of 70% or more and less than 90%)	2 (Herbicidal ratio of 20% or more and less than 40%)
Cc1nnc(NC(=O)c2ccc(C(F)(F)F)n3c(C(C)[S+](C)[O-])nnc23)o1 (stereo not drawn) [1-079]	4 (Herbicidal ratio of 70% or more and less than 90%)	3 (Herbicidal ratio of 40% or more and less than 70%)	4 (Herbicidal ratio of 70% or more and less than 90%)	4 (Herbicidal ratio of 70% or more and less than 90%)	5 (Herbicidal ratio of 90% or more (almost completely withered))	5 (Herbicidal ratio of 90% or more (almost completely withered))	5 (Herbicidal ratio of 90% or more (almost completely withered))	5 (Herbicidal ratio of 90% or more (almost completely withered))
C#CCSc1nnc2c(C(=O)Nc3nnc(C)o3)ccc(C(F)(F)F)n12 [1-065]	5 (Herbicidal ratio of 90% or more (almost completely withered))	2 (Herbicidal ratio of 20% or more and less than 40%)	3 (Herbicidal ratio of 40% or more and less than 70%)	0 (Herbicidal ratio of 5% or less (almost no effect))	3 (Herbicidal ratio of 40% or more and less than 70%)	3 (Herbicidal ratio of 40% or more and less than 70%)	1 (Herbicidal ratio of 5% or more and less than 20%)	0 (Herbicidal ratio of 5% or less (almost no effect))
CCC(C)Sc1nnc2c(C(=O)Nc3nnc(C)o3)ccc(C(F)(F)F)n12 (stereo not drawn) [1-094]	5 (Herbicidal ratio of 90% or more (almost completely withered))	3 (Herbicidal ratio of 40% or more and less than 70%)	5 (Herbicidal ratio of 90% or more (almost completely withered))	0 (Herbicidal ratio of 5% or less (almost no effect))	4 (Herbicidal ratio of 70% or more and less than 90%)	5 (Herbicidal ratio of 90% or more (almost completely withered))	4 (Herbicidal ratio of 70% or more and less than 90%)	1 (Herbicidal ratio of 5% or more and less than 20%)
Cc1nnc(NC(=O)c2ccc(C(F)(F)F)n3c(SC(C)(C)C)nnc23)o1 [1-095]	5 (Herbicidal ratio of 90% or more (almost completely withered))	5 (Herbicidal ratio of 90% or more (almost completely withered))	5 (Herbicidal ratio of 90% or more (almost completely withered))	1 (Herbicidal ratio of 5% or more and less than 20%)	4 (Herbicidal ratio of 70% or more and less than 90%)	4 (Herbicidal ratio of 70% or more and less than 90%)	4 (Herbicidal ratio of 70% or more and less than 90%)	1 (Herbicidal ratio of 5% or more and less than 20%)
